Results on eight compounds are retold here after US7709645B2, “Pyrrolo-pyridine kinase modulators” (SGX Pharmaceuticals, Inc., priority 2004, dated 2010).

Molecules are shown by their SMILES. Some results are limits rather than exact numbers.

The target in the assay is T1, MET kinase (Homo sapiens, UniProt P08581).
T1 construct: Sf9 insect cell culture expressing the kinase domain of human Met; 6x Histidine tag (TEV-cleavable) (cleaved yes); made in house; host or cells: Sf9 insect cells
T1 sequence (P08581 1078-1345 limits assumed): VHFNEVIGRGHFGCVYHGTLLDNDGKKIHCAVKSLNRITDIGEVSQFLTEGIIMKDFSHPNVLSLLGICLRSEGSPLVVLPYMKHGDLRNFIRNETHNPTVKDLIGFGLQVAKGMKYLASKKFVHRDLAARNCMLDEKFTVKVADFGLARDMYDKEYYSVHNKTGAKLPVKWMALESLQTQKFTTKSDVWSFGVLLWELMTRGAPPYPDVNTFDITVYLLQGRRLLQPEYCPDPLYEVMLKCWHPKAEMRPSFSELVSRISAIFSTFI
Put plainly: Met Bioassay (luminescence-based enzyme assay, Kinase-Glo). The format is biochemical. To be noted: 10 μM ATP. An excerpt: In addition to the c-Abl PK/LDH coupled assay (above), homogeneous luminescence-based inhibitor screening assays were developed for c-Abl, MET, AurA, and PDK1 kinases (among others). Each of these assays made use of an ATP depletion assay (Kinase-Glo™, Promega Corporation, Madison, Wis.) to quantitate kinase activity. The Kinase-Glo™ format uses a thermostable luciferase to generate luminescent signal from ATP remaining in solution following the kinase reaction. The luminescent signal is inversely correlated with the amount of kinase activity.
Materials: Poly Glu-Tyr (4:1) substrate (Sigma Cat# P-0275), ATP (Sigma Cat#A-3377, FW=551), HEPES buffer, pH 7.5, Bovine serum albumin (BSA) (Roche 92423420), MgCl2, Staurosporine (Streptomyces sp. Sigma Cat#85660-1MG), white Costar 384-well flat-bottom plate (VWR Cat#29444-088). MET kinase (see below), Kinase-Glo™ (Promega Cat#V6712).
Stock Solutions: 10 mg/ml poly Glu-Tyr in water, stored at −20° C.; 100 mM HEPES buffer, pH 7.5 (5 ml 1M stock+45 ml miliQH2O); 10 mM ATP (5.51 mg/ml in dH2O) stored at −20° C. (diluted 50 μl into total of 10 ml miliQH2O daily=50 μM ATP working stock); 1% BSA (1 g BSA in 100 ml 0.1M HEPES, pH 7.5, stored at −20° C.), 100 mM MgCl2; 200 μM Staurosporine, 2× Kinase-Glo™ reagent (made fresh or stored at −20° C.).
Standard Assay Setup for 384-well format (20 μl kinase reaction, 40 μl detection reaction): 10 mM MgCl2; 0.3 mg/ml poly Glu-Tyr; 0.1% BSA; 1 μl test compound (in DMSO); 0.4 μg/ml MET kinase; 10 μM ATP; 100 mM HEPES buffer. Positive controls contained DMSO with no test compound. Negative controls contained 10 μM staurosporine. The kinase reactions were initiated at time t=0 by the addition of ATP. Kinase reactions were incubated at 21° C. for 60 min, then 20 μl of Kinase-Glo™ reagent were added to each well to quench the kinase reaction and initiate the luminescence reaction. After a 20 min incubation at 21° C., the luminescence was detected in a plate-reading luminometer.
The cell pellets produced from half of a 12 L Sf9 insect cell culture expressing the kinase domain of human Met were resuspended in a buffer containing 50 mM Tris-HCl pH 7.7 and 250 mM NaCl, in a volume of approximately 40 ml per 1 L of original culture. One tablet of Roche Complete, EDTA-free protease inhibitor cocktail (Cat# 1873580) was added per 1 L of original culture. The suspension was stirred for 1 hour at 4° C. Debris was removed by centrifugation for 30 minutes at 39,800×g at 4° C. The supernatant was decanted into a 500 ml beaker and 10 ml of 50% slurry of Qiagen Ni-NTA Agarose (Cat# 30250) that had been pre-equilibrated in 50 mM Tris-HCl pH 7.8, 50 mM NaCl, 10% Glycerol, 10 mM Imidazole, and 10 mM Methionine, were added and stirred for 30 minutes at 4° C. The sample was then poured into a drip column at 4° C. and washed with 10 column volumes of 50 mM Tris-HCl pH 7.8, 500 mM NaCl, 10% Glycerol, 10 mM Imidazole, and 10 mM Methionine. The protein was eluted using a step gradient with two column volumes each of the same buffer containing 50 mM, 200 mM, and 500 mM Imidazole, sequentially. The 6× Histidine tag was cleaved overnight using 40 units of TEV protease (Invitrogen Cat#10127017) per 1 mg of protein while dialyzing in 50 mM Tris-HCl pH 7.8, 500 mM NaCl, 10% Glycerol, 10 mM Imidazole, and 10 mM Methionine at 4° C. The 6× Histidine tag was removed by passing the sample over a Pharmacia 5 ml IMAC column (Cat# 17-0409-01) charged with Nickel and equilibrated in 50 mM Tris-HCl pH 7.8, 500 mM NaCl, 10% Glycerol, 10 mM Imidazole, and 10 mM Methionine. The cleaved protein bound to the Nickel column at a low affinity and was eluted with a step gradient. The step gradient was run with 15% and then 80% of the B-side (A-side=50 mM Tris-HCl pH 7.8, 500 mM NaCl, 10% Glycerol, 10 mM Imidazole, and 10 mM Methionine; B-side=50 mM Tris-HCl pH 7.8, 500 mM NaCl, 10% Glycerol, 500 mM Imidazole, and 10 mM Methionine) for 4 column volumes each. […]
On to `COc1cc(-c2cnc3[nH]cc(-c4ccc(O)cc4)c3c2)ccc1O` [AE58], for which the IC50 was in the range of 1000 to 5000 nM.

Take `O=C(c1cncc(-c2cnc3[nH]cc(-c4ccc5cc[nH]c5c4)c3c2)c1)N1CCOCC1` [AE14]: the IC50 is below 1000 nM.

`Oc1cccc(-c2cnc3[nH]cc(-c4ccc(O)c(F)c4)c3c2)c1` [AE48] registered an IC50 below 1000 nM. Under `COc1ccccc1-c1c[nH]c2ncc(-c3ccc(O)c(CN4CCCN(C)CC4)c3)cc12` [AE41] stands 1000 to 5000 nM; under `c1cc2cc(-c3c[nH]c4ncc(-c5ccc6[nH]cnc6c5)cc34)ccc2[nH]1` [AE22], 1000 to 5000 nM; under `COc1cc(-c2cnc3[nH]cc(-c4ccccc4OC)c3c2)ccc1OCCN1CCCC1` [AE65], 1000 to 5000 nM. The same measure for `COc1ccccc1-c1c[nH]c2ncc(-c3cccc(C(=N)N4CCCCC4)c3)cc12` [AE42]: below 1000 nM; for `COc1ccccc1-c1c[nH]c2ncc(-c3ccc(CN(C)C)cc3)cc12` [AE8]: below 1000 nM.

By IC50 is commonly meant the midpoint of a concentration-inhibition curve. The low end stands for greater potency in that assay, the high end for weaker potency in that assay.
